Measurements: US20150274719A1, “AMINO-SUBSTITUTED IMIDAZO[1,2-A]PYRIDINECARBOXAMIDES AND THEIR USE” (BAYER PHARMA AKTIENGESELLSCHAFT, priority 2012, published 2015)
Where a name gives a salt, the structure may show the parent alone.

Target: T1, recombinant guanylate cyclase reporter cell line (Rattus norvegicus, UniProt P19686+P20595)
T1 construct: expressed in transfected cells; host or cells: recombinant reporter cell line
T1 sequence (P19686 1-690): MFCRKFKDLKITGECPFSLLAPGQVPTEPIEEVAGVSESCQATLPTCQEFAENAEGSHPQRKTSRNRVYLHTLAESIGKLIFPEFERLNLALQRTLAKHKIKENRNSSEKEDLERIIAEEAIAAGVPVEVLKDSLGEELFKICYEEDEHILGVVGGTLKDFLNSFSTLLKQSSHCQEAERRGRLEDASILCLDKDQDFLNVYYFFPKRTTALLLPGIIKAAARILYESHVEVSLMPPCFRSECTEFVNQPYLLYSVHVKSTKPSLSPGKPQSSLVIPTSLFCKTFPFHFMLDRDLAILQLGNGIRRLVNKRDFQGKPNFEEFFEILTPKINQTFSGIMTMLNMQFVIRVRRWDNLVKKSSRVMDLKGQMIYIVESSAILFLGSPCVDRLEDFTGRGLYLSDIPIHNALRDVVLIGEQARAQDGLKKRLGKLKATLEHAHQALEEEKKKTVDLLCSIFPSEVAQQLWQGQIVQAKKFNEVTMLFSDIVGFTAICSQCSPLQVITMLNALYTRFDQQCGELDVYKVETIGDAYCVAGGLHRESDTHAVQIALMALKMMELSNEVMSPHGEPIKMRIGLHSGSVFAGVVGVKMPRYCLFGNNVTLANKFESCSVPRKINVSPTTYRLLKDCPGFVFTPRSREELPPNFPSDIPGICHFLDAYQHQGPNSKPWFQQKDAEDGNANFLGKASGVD
T1 sequence (P20595 1-619): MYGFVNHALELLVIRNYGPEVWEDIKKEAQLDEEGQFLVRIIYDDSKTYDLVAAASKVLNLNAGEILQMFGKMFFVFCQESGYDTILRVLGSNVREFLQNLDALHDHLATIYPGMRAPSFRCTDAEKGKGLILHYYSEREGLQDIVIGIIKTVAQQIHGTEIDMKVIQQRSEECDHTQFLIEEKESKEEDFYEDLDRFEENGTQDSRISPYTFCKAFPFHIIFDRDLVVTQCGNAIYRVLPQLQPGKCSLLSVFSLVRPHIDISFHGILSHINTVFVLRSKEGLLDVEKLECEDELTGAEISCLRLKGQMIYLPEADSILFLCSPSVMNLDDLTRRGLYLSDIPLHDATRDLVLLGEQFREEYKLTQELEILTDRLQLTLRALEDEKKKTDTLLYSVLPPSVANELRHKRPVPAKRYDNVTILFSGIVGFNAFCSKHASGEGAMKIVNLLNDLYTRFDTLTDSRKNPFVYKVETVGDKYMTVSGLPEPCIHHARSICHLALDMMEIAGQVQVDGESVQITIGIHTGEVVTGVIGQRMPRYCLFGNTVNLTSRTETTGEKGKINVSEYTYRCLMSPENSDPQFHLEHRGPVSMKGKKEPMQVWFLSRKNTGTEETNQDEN
Test: Action on recombinant guanylate cyclase reporter cell line
Format: cell-based
Conditions: in some cases mean values from individual determinations
How it was run: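 Read-out: MEC (minimal effective concentration) in cells. Reporter line carries recombinant sGC. Some values are averages of single runs.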

Row | MEC (minimal effective concentration) [µM] | SMILES
1 | 0.30 | Cc1cc(OCc2c(F)cccc2F)c2nc(C)c(C(=O)N[C@H]3C[C@H]4CN(C)CCN4C3)n2c1 [Example 314, 8-[(2,6-Difluorobenzyl)oxy]-2,6-dimethyl-N-[(7S,8aS)-2-methyloctahydropyrrolo[1,2-a]pyrazin-7-yl]imidazo[1,2-a]pyridine-3-carboxamide]
2 | 0.30 | CCC(C)(CN)NC(=O)c1c(C)nc2c(OCc3c(F)ccc(F)c3F)cc(C)cn12 (stereo not drawn) [Example 315, ent-N-(1-amino-2-methylbutan-2-yl)-2,6-dimethyl-8-[(2,3,6-trifluorobenzyl)oxy]imidazo[1,2-a]pyridine-3-carboxamide]
3 | 0.30 | CCCC(C)(N)CNC(=O)c1c(C)nc2c(OCc3c(F)cccc3F)cccn12 (stereo not drawn) [Example 318, ent-N-(2-amino-2-methylpentyl)-8-[(2,6-difluorobenzyl)oxy]-2-methylimidazo[1,2-a]pyridine-3-carboxamide]
4 | 0.30 | COC(=O)[C@@H](N)CNC(=O)c1c(C)nc2c(OCc3c(F)cccc3F)cc(C)cn12 [Example 319, Methyl 3-[({8-[(2,6-difluorobenzyl)oxy]-2,6-dimethylimidazo[1,2-a]pyridin-3-yl}carbonyl)amino]-L-alaninate]
5 | 0.30 | CCCC(C)(N)CNC(=O)c1c(C2CC2)nc2c(OCc3c(F)cccc3F)cc(C)cn12 (stereo not drawn) [Example 322, ent-N-(2-amino-2-methylpentyl)-2-cyclopropyl-8-[(2,6-difluorobenzyl)oxy]-6-methylimidazo[1,2-a]pyridine-3-carboxamide]
6 | 0.30 | CCCC(C)(N)CNC(=O)c1c(C)nc2c(OCc3c(F)cccc3F)cc(CC)cn12 (stereo not drawn) [Example 323, ent-N-(2-amino-2-methylpentyl)-8-[(2,6-difluorobenzyl)oxy]-6-ethyl-2-methylimidazo[1,2-a]pyridine-3-carboxamide]
7 | 1.00 | Cc1cc(OCc2c(F)cccc2F)c2nc(C)c(C(=O)N[C@@H]3CC[C@](C)(N)C3(C)C)n2c1 [Example 324, N-[(1R,3S)-3-amino-2,2,3-trimethylcyclopentyl]-8-[(2,6-difluorobenzyl)oxy]-2,6-dimethylimidazo[1,2-a]pyridine-3-carboxamide]
8 | 1.00 | CCCc1nc2c(OCc3c(F)cccc3F)cc(C)cn2c1C(=O)NCC(C)(N)CC (stereo not drawn) [Example 327, ent-N-(2-amino-2-methylbutyl)-8-[(2,6-difluorobenzyl)oxy]-6-methyl-2-propylimidazo[1,2-a]pyridine-3-carboxamide]
9 | 0.10 | CCCC(C)(N)CNC(=O)c1c(CC)nc2c(OCc3c(F)cccc3F)cc(C)cn12 (stereo not drawn) [Example 338, ent-N-(2-amino-2-methylpentyl)-8-[(2,6-difluorobenzyl)oxy]-2-ethyl-6-methylimidazo[1,2-a]pyridine-3-carboxamide]
10 | 1.00 | Cc1cc(OCc2c(F)cccc2F)c2nc(C)c(C(=O)NCC(C)(C)NCCO)n2c1 [Example 349, 8-[(2,6-Difluorobenzyl)oxy]-N-{2-[(2-hydroxyethyl)amino]-2-methylpropyl}-2,6-dimethylimidazo[1,2-a]pyridine-3-carboxamide]
11 | 3.00 | COc1cccc(F)c1COc1cc(C)cn2c(C(=O)NCC(C)(C)N)c(C)nc12 [Example 352, N-(2-amino-2-methylpropyl)-8-[(2-fluoro-6-methoxybenzyl)oxy]-2,6-dimethylimidazo[1,2-a]pyridine-3-carboxamide]
12 | 3.00 | CCCC(C)(N)CNC(=O)c1c(C)nc2c(OCc3ccccc3Br)cc(C)cn12 (centres unmarked) [Example 353, N-(2-amino-2-methylpentyl)-8-[(2-bromobenzyl)oxy]-2,6-dimethylimidazo[1,2-a]pyridine-3-carboxamide]
13 | 3.00 | CCCC(C)(N)CNC(=O)c1cnc2c(OCc3c(F)cccc3F)cccn12 (stereo not drawn) [Example 354, ent-N-(2-amino-2-methylpentyl)-8-[(2,6-difluorobenzyl)oxy]imidazo[1,2-a]pyridine-3-carboxamide]
14 | 0.30 | C#Cc1cc(OCc2c(F)cccc2F)c2nc(C)c(C(=O)NCC(C)(N)CCC)n2c1 (stereo not drawn) [Example 355, ent-N-(2-amino-2-methylpentyl)-8-[(2,6-difluorobenzyl)oxy]-6-ethynyl-2-methylimidazo[1,2-a]pyridine-3-carboxamide Formate]
15 | 3.00 | CCCC(C)(N)CNC(=O)c1c(C)nc2c(OCc3c(F)ccc(C4CC4)c3F)cc(C)cn12 (stereo not drawn) [Example 359, ent-N-(2-amino-2-methylpentyl)-8-[(3-cyclopropyl-2,6-difluorobenzyl)oxy]-2,6-dimethylimidazo[1,2-a]pyridine-3-carboxamide]
16 | 1.00 | CCC(C)(N)CNC(=O)c1c(C)nc2c(OCc3c(F)ccc(OC)c3F)cc(C)cn12 (stereo not drawn) [Example 360, ent-N-(2-amino-2-methylbutyl)-8-[(2,6-difluoro-3-methoxybenzyl)oxy]-2,6-dimethylimidazo[1,2-a]pyridine-3-carboxamide]
17 | 1.00 | COc1ccc(F)c(COc2cc(C)cn3c(C(=O)NCC(C)(N)CF)c(C)nc23)c1F (stereo not drawn) [Example 361, ent-N-(2-amino-3-fluoro-2-methylpropyl)-8-[(2,6-difluoro-3-methoxybenzyl)oxy]-2,6-dimethylimidazo[1,2-a]pyridine-3-carboxamide]
18 | 1.00 | Cc1cc(OCc2c(F)ccc(C3CC3)c2F)c2nc(C)c(C(=O)NCC(C)(N)CF)n2c1 (centres unmarked) [Example 362, N-(2-amino-3-fluoro-2-methylpropyl)-8-[(3-cyclopropyl-2,6-difluorobenzyl)oxy]-2,6-dimethylimidazo[1,2-a]pyridine-3-carboxamide]
19 | 3.00 | CCC(C)(N)CNC(=O)c1c(C)nc2c(OCc3c(F)ccc(C4CC4)c3F)cc(C)cn12 (stereo not drawn) [Example 363, ent-N-(2-amino-2-methylbutyl)-8-[(3-cyclopropyl-2,6-difluorobenzyl)oxy]-2,6-dimethylimidazo[1,2-a]pyridine-3-carboxamide]
20 | 0.30 | CCCC(C)(N)CNC(=O)c1c(C)nc2c(OCc3c(F)ccc(OC)c3F)cc(C)cn12 (stereo not drawn) [Example 364, ent-N-(2-amino-2-methylpentyl)-8-[(2,6-difluoro-3-methoxybenzyl)oxy]-2,6-dimethylimidazo[1,2-a]pyridine-3-carboxamide]
21 | 1.00 | Cc1cc(OCc2c(F)cccc2F)c2nc(C)c(C(=O)NC34CC5CC(CC(N)(C5)C3)C4)n2c1 [Example 365, N-(3-aminoadamantan-1-yl)-8-[(2,6-difluorobenzyl)oxy]-2,6-dimethylimidazo[1,2-a]pyridine-3-carboxamide Formate]
22 | 1.00 | CCOC(=O)c1cccc(C(CN)NC(=O)c2c(C)nc3c(OCc4c(F)cccc4F)cc(C)cn23)n1 (centres unmarked) [Example 397]
23 | 0.30 | Cc1cc(OCc2c(F)cccc2F)c2nc(C)c(C(=O)NC(CN)c3ccc(C#N)cc3)n2c1 (centres unmarked) [Example 398]
24 | 0.10 | CCCC(C)(N)CNC(=O)c1c(C)nc2c(OCc3c(F)cccc3F)cc(CF)cn12 (stereo not drawn) [Example 403, ent-N-(2-amino-2-methylpentyl)-8-[(2,6-difluorobenzyl)oxy]-6-(fluoromethyl)-2-methylimidazo[1,2-a]pyridine-3-carboxamide]
25 | 0.30 | CCC(C)(N)CNC(=O)c1c(C)nc2c(OCc3c(F)cccc3F)cc(CF)cn12 (centres unmarked) [Example 404]
26 | 0.30 | Cc1nc2c(OCc3c(F)cccc3F)cc(CF)cn2c1C(=O)NCC(C)(N)CF (centres unmarked) [Example 405]
